Results taken from article PMC3882073 (European neuropsychopharmacology : the journal of the …, 2012).
Counter-ions that a name gives are not always drawn.

Assays:
[1] = tested on: AMPH-induced DA release in striatum; assay: Amphetamine; assay type: in vivo, rat
[2] = tested on: AMPH-induced DA release in prefrontal cortex (PFC); assay: Amphetamine; assay type: in vivo, rat
[3] = tested on: basal dopamine (DA) levels in prefrontal cortex (PFC); assay: Basal dopamine levels in PFC, in vivo microdialysis; design: species or system rat
[4] = tested on: psychotomimetic effects of ketamine; conditions: ref D’Souza et al., 2012, cited from earlier work
[5] = experiments involving Org25935 and DCS

N[C@@H]1CON=C1O [DCS, D-cycloserine]
Effect of drug treatment on AMPH-induced DA release in striatum [1, 5]: no significant effects
Effect on AMPH-induced DA release in PFC ([2]; DCS 30 mg/kg ip per day 2 weeks, 60–210 min time period): significantly reduced AMPH-induced DA release
Effect on AMPH-induced DA release in PFC ([2]; DCS 30 mg/kg ip per day 2 weeks, in the absence of PCP): no significant effect on AMPH-induced DA release
Effect on PCP-induced enhancement of DA release in prefrontal cortex ([2]; summary statement (abstract)): significantly reduced PCP-induced enhancement of DA release in prefrontal cortex
Effect on basal DA levels ([3]; DCS 30 mg/kg ip per day 2 weeks): no significant effect on basal DA levels

c1ccc(C2(N3CCCCC3)CCCCC2)cc1 [PCP, Phencyclidine hydrochloride]
Effect of PCP on AMPH-induced DA release in striatum [1, 5]: no significant effects
Effect on striatal DA release ([1]; summary statement (abstract)): Neither PCP nor GTIs significantly affected striatal DA release
Effect of PCP on AMPH-induced DA release in PFC ([2]; Org25935 experiments, PCP 15 mg/kg/d, 0–210 min after AMPH 1 mg/kg sc): significantly increased AMPH-induced DA release
Mean basal dopamine (DA) levels in PFC ([3]; Org25935 experiments, PCP 15 mg/kg/d minipump alone (vehicle), mean ± std dev): 1.03 ± .80 (16) pg/10 μl
Effect on basal DA levels ([3]; PCP 15 mg/kg/d, experiments involving Org25935): no significant effect on basal DA levels
Effect of treatment on basal DA levels ([3]; R231857/60 experiments, rmANOVA): Neither PCP (F1,49=.2, p=.6) nor R231857/R231860 (F3,49=.5, p=.7) treatment significantly altered basal DA levels

COc1ccc2c(c1)CC[C@H](CN(C)CC(=O)O)[C@@H]2c1ccccc1 [Org25935]
Total symptoms induced by ketamine ([4]; acute challenge study): reversed
Acute psychotomimetic effects of ketamine ([4]; healthy volunteers): reverse acute psychotomimetic effects of ketamine
Safety in human use ([4]; humans): safe in human use
Effect of drug treatment on AMPH-induced DA release in striatum [1, 5]: no significant effects
Effect on AMPH-induced DA release in PFC ([2]; Org25935 5 mg, in the absence of PCP): no significant effect on AMPH-induced DA release
Effect on AMPH-induced DA release in PFC ([2]; Org25935 5 mg, in the presence of PCP vs PCP alone, 60–210 min): did not significantly reduced AMPH-induced DA release
Effect on AMPH-induced DA release in PFC ([2]; Org25935 10 mg, in the absence of PCP): no significant effect on AMPH-induced DA release
Effect on AMPH-induced DA release in PFC ([2]; Org25935 10 mg, in the presence of PCP vs PCP alone, 60–210 min): effective
Effect on AMPH-induced DA release in PFC ([2]; Org25935, across doses, entire 0–210 min interval): significantly inhibited AMPH-induced DA release
Effect on basal DA levels ([3]; Org25935 5 mg/kg, across control and PCP treatment conditions, post-hoc LSD): significant increase in basal DA levels
Effect on basal DA levels ([3]; Org25935 10 mg/kg, across control and PCP treatment conditions, post-hoc LSD): non-significant decrease

NCC(=O)O [Glycine]
Effect on AMPH-induced DA release in PFC ([2]; in the presence of PCP, glycine 16% by diet 2 weeks, positive control, 60–210 min): significantly reduced DA release
